From PubChem BioAssay (NCI)
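Compound exposure: 48 hours, 5 concentrations, 96-well plates. At the TGI there is no net growth.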

Key:
Test in all cases: NCI tumour cell line growth inhibition, 48 h
CCRF-CEM leukemia = system: CCRF-CEM leukemia
SK-MEL-2 melanoma = system: SK-MEL-2 melanoma
SF-295 CNS = system: SF-295 CNS
NCI/ADR-RES ovarian = system: NCI/ADR-RES ovarian
EKVX NSCLC = system: EKVX NSCLC
SF-539 CNS = system: SF-539 CNS
M14 melanoma = system: M14 melanoma
NCI-H23 lung = system: NCI-H23 lung
OVCAR-3 ovarian = system: OVCAR-3 ovarian
HS 578T breast = system: HS 578T breast
MDA-N = system: MDA-N
NCI-H460 lung = system: NCI-H460 lung
MCF7 breast = system: MCF7 breast
ACHN renal = system: ACHN renal
A498 renal = system: A498 renal
T-47D breast = system: T-47D breast
HCT-15 colon = system: HCT-15 colon
OVCAR-5 ovarian = system: OVCAR-5 ovarian
SK-MEL-5 melanoma = system: SK-MEL-5 melanoma
DU-145 prostate = system: DU-145 prostate
KM12 colon = system: KM12 colon
RPMI-8226 leukemia = system: RPMI-8226 leukemia
MDA-MB-231 breast = system: MDA-MB-231 breast
UACC-257 melanoma = system: UACC-257 melanoma
RXF 393 renal = system: RXF 393 renal
SN12C renal = system: SN12C renal
BT-549 breast = system: BT-549 breast
SR leukemia = system: SR leukemia
HL-60(TB) leukemia = system: HL-60(TB) leukemia
MALME-3M melanoma = system: MALME-3M melanoma
SW-620 colon = system: SW-620 colon
OVCAR-8 ovarian = system: OVCAR-8 ovarian
HT29 colon = system: HT29 colon
NCI-H226 lung = system: NCI-H226 lung
SNB-19 CNS = system: SNB-19 CNS
MOLT-4 leukemia = system: MOLT-4 leukemia
CAKI-1 renal = system: CAKI-1 renal
HCT-116 colon = system: HCT-116 colon
SF-268 CNS = system: SF-268 CNS
UO-31 renal = system: UO-31 renal
UACC-62 melanoma = system: UACC-62 melanoma
786-0 renal = system: 786-0 renal
K-562 leukemia = system: K-562 leukemia
IGROV1 ovarian = system: IGROV1 ovarian
COLO 205 colon = system: COLO 205 colon
SK-MEL-28 melanoma = system: SK-MEL-28 melanoma
MDA-MB-435 = system: MDA-MB-435
TK-10 renal = system: TK-10 renal
PC-3 prostate = system: PC-3 prostate
LOX IMVI melanoma = system: LOX IMVI melanoma
U251 CNS = system: U251 CNS
SK-OV-3 ovarian = system: SK-OV-3 ovarian
HCC-2998 colon = system: HCC-2998 colon
NCI-H522 lung = system: NCI-H522 lung
SNB-75 CNS = system: SNB-75 CNS
A549 NSCLC = system: A549 NSCLC
HOP-62 NSCLC = system: HOP-62 NSCLC
HOP-92 NSCLC = system: HOP-92 NSCLC
OVCAR-4 ovarian = system: OVCAR-4 ovarian

Measured: TGI

O=C(c1cccs1)N(C(=S)OCc1ccccn1)c1ccccc1
96.7 µM: UO-31 renal
70 µM: EKVX NSCLC
44 µM: MALME-3M melanoma
> 100 µM: CCRF-CEM leukemia | SK-MEL-2 melanoma | SF-295 CNS | NCI/ADR-RES ovarian | SF-539 CNS | M14 melanoma | NCI-H23 lung | OVCAR-3 ovarian | HS 578T breast | MDA-N | NCI-H460 lung | MCF7 breast | ACHN renal | A498 renal | T-47D breast | HCT-15 colon | OVCAR-5 ovarian | SK-MEL-5 melanoma | DU-145 prostate | KM12 colon | RPMI-8226 leukemia | MDA-MB-231 breast | UACC-257 melanoma | RXF 393 renal | SN12C renal | BT-549 breast | SR leukemia | HL-60(TB) leukemia | SW-620 colon | OVCAR-8 ovarian | HT29 colon | NCI-H226 lung | SNB-19 CNS | MOLT-4 leukemia | CAKI-1 renal | HCT-116 colon | SF-268 CNS | UACC-62 melanoma | 786-0 renal | K-562 leukemia | IGROV1 ovarian | COLO 205 colon | SK-MEL-28 melanoma | MDA-MB-435 | TK-10 renal | PC-3 prostate | LOX IMVI melanoma | U251 CNS | SK-OV-3 ovarian

C[C@H](C(=O)N1C(=O)O[C@@H](c2ccccc2)[C@H]1C)[C@H](c1ccccc1)N(Cc1ccccc1)OC(=O)c1ccccc1
69.2 µM: SK-MEL-5 melanoma
73.7 µM: SK-MEL-2 melanoma
52.1 µM: HOP-62 NSCLC
90.9 µM: SF-295 CNS
85.3 µM: HCC-2998 colon
> 100 µM: CCRF-CEM leukemia | NCI-H522 lung | NCI/ADR-RES ovarian | SF-539 CNS | M14 melanoma | NCI-H23 lung | HS 578T breast | MDA-N | NCI-H460 lung | MCF7 breast | ACHN renal | A498 renal | T-47D breast | HCT-15 colon | OVCAR-5 ovarian | DU-145 prostate | KM12 colon | RPMI-8226 leukemia | MDA-MB-231 breast | SNB-75 CNS | UACC-257 melanoma | RXF 393 renal | A549 NSCLC | SN12C renal | BT-549 breast | HL-60(TB) leukemia | MALME-3M melanoma | SW-620 colon | OVCAR-8 ovarian | HT29 colon | NCI-H226 lung | SNB-19 CNS | MOLT-4 leukemia | CAKI-1 renal | HOP-92 NSCLC | HCT-116 colon | SF-268 CNS | UO-31 renal | UACC-62 melanoma | 786-0 renal | K-562 leukemia | OVCAR-4 ovarian | IGROV1 ovarian | COLO 205 colon | SK-MEL-28 melanoma | MDA-MB-435 | TK-10 renal | PC-3 prostate | LOX IMVI melanoma | U251 CNS | SK-OV-3 ovarian
